What is called EC50 is the concentration needed to bring the measured effect to its halfway point. Read a low EC50 as higher potency in that assay.

In the assay the test system is M17-TAU P301L cells. The experiment in a line: TAU cytotoxicity assay: LDH leakage of retinoic acid incubated M17-TAU P301L cells. Format: cell-based, human. Particulars: Homo sapiens, 168 h, reduction of LDH activity of retinoic acid incubated M17-TAU P301L cells, 7 days. The method, boiled down:
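M17 neuroblastoma cells stably expressing human TAU P301L, seeded at 2500 cells/cm2 in Optimem with 1% FCS, then given 2.5 μM retinoic acid (stock before 1:1 addition) and grown 7 days at 37 °C. Cytotoxicity read as LDH leaked into medium; EC50 derived from these measurements.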
The molecule `CCc1ccccc1N1CCC(C(=O)NCCc2c[nH]c3ccc(Cl)cc23)C1=O` (stereo not shown) [Example D157, N-(2-(5-chloro-1H-indol-3-yl)ethyl)-1-(2-ethylphenyl)-2-oxopyrrolidine-3-carboxamide] displayed a concentration for a half-maximal effect (EC50) of 1210 nM.
In turn, `Cc1ccccc1N1CCC(C(=O)NCCc2c[nH]c3ccc(Cl)cc23)C1=O` (stereo not shown) [Example D158, N-(2-(5-chloro-1H-indol-3-yl)ethyl)-2-oxo-1-o-tolylpyrrolidine-3-carboxamide] showed an EC50 of 1030 nM.
To `Cc1cccc(N2CCC(C(=O)NCCc3c[nH]c4ccc(Cl)cc34)C2=O)c1` (stereo not shown) [Example D159, N-(2-(5-chloro-1H-indol-3-yl)ethyl)-2-oxo-1-m-tolylpyrrolidine-3-carboxamide] belongs 900 nM.
To `Cn1ccc(N2CCC(C(=O)NCCc3c[nH]c4ccc(Cl)cc34)C2=O)n1` (stereo not shown) [Example D160, N-(2-(5-chloro-1H-indol-3-yl)ethyl)-1-(1-methyl-1H-pyrazol-3-yl)-2-oxopyrrolidine-3-carboxamide] belongs 1040 nM; to `COc1cccc(N2CCC(C(=O)NCCc3c[nH]c4ccc(Cl)cc34)C2=O)c1` (stereo not shown) [Example D162, N-(2-(5-chloro-1H-indol-3-yl)ethyl)-1-(3-methoxyphenyl)-2-oxopyrrolidine-3-carboxamide], 233 nM; to `COc1ccccc1N1CCC(C(=O)NCCc2c[nH]c3ccc(Cl)cc23)C1=O` (stereo not shown) [Example D163, N-(2-(5-chloro-1H-indol-3-yl)ethyl)-1-(2-methoxyphenyl)-2-oxopyrrolidine-3-carboxamide], 1860 nM.
Consider `O=C(NCCc1c[nH]c2ccc(Cl)cc12)C1CCN(CC2CCCCC2)C1=O` (stereo not shown) [Example D164, N-(2-(5-chloro-1H-indol-3-yl)ethyl)-1-(cyclohexylmethyl)-2-oxopyrrolidine-3-carboxamide], for which the EC50 came out at 320 nM.
To `Cc1ccc(N2CCC(C(=O)NCCc3c[nH]c4ccc(Cl)cc34)C2)cc1` (stereo not shown) [Example D165, N-(2-(5-chloro-1H-indol-3-yl)ethyl)-1-p-tolylpyrrolidine-3-carboxamide] belongs 188 nM.
To `O=C(NCCc1n[nH]c2ccccc12)c1cc(Cc2cc(F)ccc2F)on1` [Example D166, N-(2-(1H-indazol-3-yl)ethyl)-5-(2,5-difluorobenzyl)isoxazole-3-carboxamide] belongs 631 nM; to `Cn1ccc2cc(N3CCC(C(=O)NCCc4c[nH]c5ccc(Cl)cc45)C3=O)ccc21` (stereo not shown) [Example D167, N-(2-(5-chloro-1H-indol-3-yl)ethyl)-1-(1-methyl-1H-indol-5-yl)-2-oxopyrrolidine-3-carboxamide], 506 nM.
Then `O=C(NCCc1c[nH]c2ccc(Cl)cc12)c1noc(Cc2ccccc2)n1` [Example D168, 5-benzyl-N-(2-(5-chloro-1H-indol-3-yl)ethyl)-1,2,4-oxadiazole-3-carboxamide], with 77 nM; and `O=C(NCCc1c[nH]c2ccc(Cl)cc12)c1noc(Cc2cccc(F)c2)n1` [Example D169, N-(2-(5-chloro-1H-indol-3-yl)ethyl)-5-(3-fluorobenzyl)-1,2,4-oxadiazole-3-carboxamide], with 26 nM.
Molecule `O=C(NCCc1c[nH]c2ccc(Cl)cc12)c1noc(Cc2ccccc2F)n1` [Example D170, N-(2-(5-chloro-1H-indol-3-yl)ethyl)-5-(2-fluorobenzyl)-1,2,4-oxadiazole-3-carboxamide] returned an EC50 of 45 nM.
Then `O=C(NCCc1c[nH]c2ccc(Cl)cc12)c1noc(Cc2ccc(F)cc2)n1` [Example D171, N-(2-(5-chloro-1H-indol-3-yl)ethyl)-5-(4-fluorobenzyl)-1,2,4-oxadiazole-3-carboxamide], with 32 nM; and `O=C(NCCc1c[nH]c2ccc(Cl)cc12)c1noc(Cc2ccc(Cl)cc2)n1` [Example D172, N-(2-(5-chloro-1H-indol-3-yl)ethyl)-5-(4-chlorobenzyl)-1,2,4-oxadiazole-3-carboxamide], with 34 nM; and `COc1ccc(Cc2nc(C(=O)NCCc3c[nH]c4ccc(Cl)cc34)no2)cc1` [Example D173, N-(2-(5-chloro-1H-indol-3-yl)ethyl)-5-(4-methoxybenzyl)-1,2,4-oxadiazole-3-carboxamide], with 60 nM.
`O=C(NCCc1c[nH]c2ccc(Cl)cc12)c1noc(Cc2ccc(Cl)c(Cl)c2)n1` [Example D174, N-(2-(5-chloro-1H-indol-3-yl)ethyl)-5-(3,4-dichlorobenzyl)-1,2,4-oxadiazole-3-carboxamide]: the EC50 is 282 nM.
Then `O=C(NCCc1c[nH]c2ccc(Cl)cc12)c1noc(Cc2ccc(Cl)c(F)c2)n1` [Example D175, N-(2-(5-chloro-1H-indol-3-yl)ethyl)-5-(4-chloro-3-fluorobenzyl)-1,2,4-oxadiazole-3-carboxamide], with 94 nM; and `CC(C)(C)c1ccc(Cc2nc(C(=O)NCCc3c[nH]c4ccc(Cl)cc34)no2)cc1` [Example D176, 5-(4-tert-butylbenzyl)-N-(2-(5-chloro-1H-indol-3-yl)ethyl)-1,2,4-oxadiazole-3-carboxamide], with 100 nM.
To `COc1cccc(Cc2nc(C(=O)NCCc3c[nH]c4ccc(Cl)cc34)no2)c1` [Example D177, N-(2-(5-chloro-1H-indol-3-yl)ethyl)-5-(3-methoxybenzyl)-1,2,4-oxadiazole-3-carboxamide] belongs 29 nM.
`COc1ccc(Cc2nc(C(=O)NCCc3c[nH]c4ccc(Cl)cc34)no2)cc1OC` [Example D178, N-(2-(5-chloro-1H-indol-3-yl)ethyl)-5-(3,4-dimethoxybenzyl)-1,2,4-oxadiazole-3-carboxamide]: a half-maximal effect (EC50) was put at 125 nM.
Then `COc1ccc(OC)c(Cc2nc(C(=O)NCCc3c[nH]c4ccc(Cl)cc34)no2)c1` [Example D179, N-(2-(5-chloro-1H-indol-3-yl)ethyl)-5-(2,5-dimethoxybenzyl)-1,2,4-oxadiazole-3-carboxamide], with 51 nM; and `O=C(NCCc1c[nH]c2ccc(Cl)cc12)c1noc(Cc2cccs2)n1` [Example D180, N-(2-(5-chloro-1H-indol-3-yl)ethyl)-5-(thiophen-2-ylmethyl)-1,2,4-oxadiazole-3-carboxamide], with 103 nM.
Consider `Cc1ccc(Cc2nc(C(=O)NCCc3c[nH]c4ccc(Cl)cc34)no2)cc1` [Example D181, N-(2-(5-chloro-1H-indol-3-yl)ethyl)-5-(4-methylbenzyl)-1,2,4-oxadiazole-3-carboxamide], for which the response was half-maximal at 48 nM (EC50).
As for `O=C(NCCc1c[nH]c2ccc(Cl)cc12)c1noc(Cc2cc(F)cc(F)c2)n1` [Example D182, N-(2-(5-chloro-1H-indol-3-yl)ethyl)-5-(3,5-difluorobenzyl)-1,2,4-oxadiazole-3-carboxamide], a half-maximal response (EC50) required 11 nM.
In turn, `COc1ccccc1Cc1nc(C(=O)NCCc2c[nH]c3ccc(Cl)cc23)no1` [Example D183, N-(2-(5-chloro-1H-indol-3-yl)ethyl)-5-(2-methoxybenzyl)-1,2,4-oxadiazole-3-carboxamide] displayed an EC50 of 47 nM.
Then `Cc1cccc(Cc2nc(C(=O)NCCc3c[nH]c4ccc(Cl)cc34)no2)c1` [Example D184, N-(2-(5-chloro-1H-indol-3-yl)ethyl)-5-(3-methylbenzyl)-1,2,4-oxadiazole-3-carboxamide], with 26 nM; and `O=C(NCCc1c[nH]c2ccc(Cl)cc12)c1noc(Cc2ccc(OC(F)(F)F)cc2)n1` [Example D185, N-(2-(5-chloro-1H-indol-3-yl)ethyl)-5-(4-(trifluoromethoxy)benzyl)-1,2,4-oxadiazole-3-carboxamide], with 42 nM; and `O=C(NCCc1c[nH]c2ccc(Cl)cc12)c1noc(Cc2cccc(C(F)(F)F)c2)n1` [Example D186, N-(2-(5-chloro-1H-indol-3-yl)ethyl)-5-(3-(trifluoromethyl)benzyl)-1,2,4-oxadiazole-3-carboxamide], with 119 nM.
`O=C(NCCc1c[nH]c2ccc(Cl)cc12)c1noc(Cc2ccc(C(F)(F)F)cc2)n1` [Example D187, N-(2-(5-chloro-1H-indol-3-yl)ethyl)-5-(4-(trifluoromethyl)benzyl)-1,2,4-oxadiazole-3-carboxamide]: the 50% effective concentration (EC50) stood at 32 nM.
The molecule `O=C(NCCc1c[nH]c2ccc(Cl)cc12)c1noc(Cc2c(F)cccc2F)n1` [Example D188, N-(2-(5-chloro-1H-indol-3-yl)ethyl)-5-(2,6-difluorobenzyl)-1,2,4-oxadiazole-3-carboxamide] yielded an EC50 of 41 nM.
Regarding `O=C(NCCc1c[nH]c2ccc(Cl)cc12)c1noc(Cc2ccc(F)cc2F)n1` [Example D189, N-(2-(5-chloro-1H-indol-3-yl)ethyl)-5-(2,4-difluorobenzyl)-1,2,4-oxadiazole-3-carboxamide], a half-maximal effect (EC50) was put at 15 nM.
On to `O=C(NCCc1c[nH]c2ccc(Cl)cc12)c1noc(Cc2cccc(Cl)c2)n1` [Example D190, N-(2-(5-chloro-1H-indol-3-yl)ethyl)-5-(3-chlorobenzyl)-1,2,4-oxadiazole-3-carboxamide], for which the EC50 stood at 25 nM.
Then `O=C(NCCc1c[nH]c2ccc(Cl)cc12)c1noc(Cc2ccccc2Cl)n1` [Example D191, N-(2-(5-chloro-1H-indol-3-yl)ethyl)-5-(2-chlorobenzyl)-1,2,4-oxadiazole-3-carboxamide], with 25 nM; and `Cc1ccccc1Cc1nc(C(=O)NCCc2c[nH]c3ccc(Cl)cc23)no1` [Example D192, N-(2-(5-chloro-1H-indol-3-yl)ethyl)-5-(2-methylbenzyl)-1,2,4-oxadiazole-3-carboxamide], with 53 nM.
In turn, `O=C(NCCc1c[nH]c2ccc(Cl)cc12)c1noc(Cc2ccsc2)n1` [Example D193, N-(2-(5-chloro-1H-indol-3-yl)ethyl)-5-(thiophen-3-ylmethyl)-1,2,4-oxadiazole-3-carboxamide] had an EC50 of 49 nM.
To `O=C(NCCc1c[nH]c2ccc(Cl)cc12)c1cc(C(=O)c2cc(F)ccc2F)on1` [Example D194, N-(2-(5-chloro-1H-indol-3-yl)ethyl)-5-(2,5-difluorobenzoyl)isoxazole-3-carboxamide] belongs 113 nM.

For the origin of these results see patent US8618138B2, “Indole amide derivatives and related compounds for use in the treatment of neurodegenerative diseases” (Katholieke Universiteit Leuven, K.U. Leuven R&D, priority 2009, dated 2013).
